# Results as given in patent US20180338899A1, “INHIBITORS FOR METHYLATION-RELATED ENZYMES HAT1 AND KAT8” (priority 2015, published 2018).
# Legend:
# [1] = interview form of commercially available medicine; cited from earlier work
# HAT1 [2] = assay: Inhibitory effect of low-molecular-weight compounds on expression of HAT1 by RT-PCR; type: cell-based; conditions: FIG. 6
# KAT8 [3] = assay: Inhibitory effect of low-molecular-weight compounds on expression of KAT8 by RT-PCR; type: cell-based; conditions: FIG. 6
# HLF cells [4] = assay: Cell death and cell growth suppression rate of HLF cells, 3D cell culture spheroid counter Cell3iMager; type: cell-based; conditions: within an effective blood concentration or even at the minimum effective blood concentration or less
# Method: In addition, chlorpropamide or MG149 was added to HLF cells on culture plates and the cell death and cell growth suppression rate were inspected using a 3D cell culture spheroid counter Cell 3 i Mager (SCREEN, Inc., Kyoto). […] The rows indicate the days of culture and the columns show the kinds and concentrations of the compounds. The concentrations of chlorpropamide were represented in a ratio when the maximum effective blood concentration was set to 1. As the maximum effective blood concentration of chlorpropamide was used 30 µg/ml (which is a value described in the interview form of a commercially available medicine containing chlorpropamide as an active ingredient).
# [5] = system: various tumors (cancer and sarcoma types); assay: Drug sensitivity test, anti-tumor effect on various tumors; type: cell-based; conditions: within an effective blood concentration or even at the minimum effective blood concentration or less; values only in FIG. 13
# Source text: Moreover, how chlorpropamide exerted an anti-tumor effect on various tumors was investigated. Target tumor types, which are classified into cancer (epithelial malignant tumors), include thyroid cancer, malignant brain tumor, malignant melanoma, lung cancer, gastric cancer, liver cancer, pancreatic cancer, colon cancer, cervical cancer, ovarian cancer, bladder cancer, and neuroblastoma. Target tumor types, which are classified into sarcoma (non-epithelial malignant tumors), include fibrosarcoma and osteosarcoma.
# The concentrations of chlorpropamide were represented in a ratio when the maximum effective blood concentration was set to 1 as described above. […] The results mean that chlorpropamide can be used as an effective and safe anti-malignant tumor agent acting on various tumors.
# KAT8 [6] = molecular target: T1, KAT8 (Homo sapiens, UniProt Q9H7Z6); assay: FDA library screening (analysis service PLEXERA) and binding strength, KAT8
# T1 sequence (Q9H7Z6 1-458): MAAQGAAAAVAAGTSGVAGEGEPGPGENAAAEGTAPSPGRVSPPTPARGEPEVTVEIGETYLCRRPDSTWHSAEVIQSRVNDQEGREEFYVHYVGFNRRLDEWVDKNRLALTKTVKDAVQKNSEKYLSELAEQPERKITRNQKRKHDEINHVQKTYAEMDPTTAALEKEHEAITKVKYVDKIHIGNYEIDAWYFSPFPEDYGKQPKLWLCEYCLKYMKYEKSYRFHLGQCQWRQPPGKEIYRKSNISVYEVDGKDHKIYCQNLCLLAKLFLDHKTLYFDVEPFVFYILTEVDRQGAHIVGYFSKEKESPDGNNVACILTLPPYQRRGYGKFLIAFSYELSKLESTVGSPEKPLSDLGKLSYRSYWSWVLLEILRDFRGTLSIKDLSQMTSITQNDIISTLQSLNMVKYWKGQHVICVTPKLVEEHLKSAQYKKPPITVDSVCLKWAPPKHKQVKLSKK
# Source text: (§1) Medicines containing each as an active ingredient (provided that each medicine has an indication other than that for malignant tumors) have already been commercially available.
# (§2) Meanwhile, medicines containing each as an active ingredient (provided that each medicine has an indication other than that for malignant tumors) have already been commercially available.
# HAT1 [7] = molecular target: T2, HAT1 (Homo sapiens, UniProt O14929); assay: FDA library screening (analysis service PLEXERA) and binding strength, HAT1
# T2 sequence (O14929 1-419): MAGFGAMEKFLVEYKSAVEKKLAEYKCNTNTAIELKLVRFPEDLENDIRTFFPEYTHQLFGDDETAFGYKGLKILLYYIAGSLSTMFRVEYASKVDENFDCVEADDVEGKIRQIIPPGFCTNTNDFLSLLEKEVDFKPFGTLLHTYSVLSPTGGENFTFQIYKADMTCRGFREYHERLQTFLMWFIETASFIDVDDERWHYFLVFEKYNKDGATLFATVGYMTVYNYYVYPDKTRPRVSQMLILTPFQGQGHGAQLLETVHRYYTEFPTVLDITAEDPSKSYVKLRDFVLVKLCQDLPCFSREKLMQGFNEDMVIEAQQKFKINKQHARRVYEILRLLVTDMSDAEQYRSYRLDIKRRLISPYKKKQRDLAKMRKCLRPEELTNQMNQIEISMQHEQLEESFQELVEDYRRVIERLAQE
# Source text: as §1, §2
# HLF cells [8] = assay: Cell growth suppression of HLF cells on culture plates; type: cell-based; conditions: 360 μg/L, day 3 and day 7
# Method: First, HLF cells were cultured on culture plates with RPMI1640 for 7 days. […] In the figures, the “D” denotes days.
# Furthermore, rebamipide was added to HLF cells on a culture pate, and the effect on the cells was examined.
# HAT1 [9] = molecular target: T2, HAT1; conditions: stated as property of the compound, no test described; cited from earlier work
# KAT8 [10] = molecular target: T1, KAT8; conditions: stated as property of the compound, no test described; cited from earlier work
inhibition of function of KAT8 (KAT8 [6]),inhibition of function of HAT1 (HAT1 [7]),Compound,maximum effective blood concentration (Cmax) [1] [ng/mL],inhibitory effect on expression of HAT1 (HAT1 [2]),inhibitory effect on expression of KAT8 (KAT8 [3]),cell growth suppression effect (HLF cells [4]),cell growth suppression effect on various tumors [5],cell growth suppression effect (HLF cells [8]),inhibition of HAT1 (HAT1 [9]),inhibition of KAT8 (KAT8 [10])
inhibited function of both HAT1 and KAT8,inhibited function of both HAT1 and KAT8,CCCNC(=O)NS(=O)(=O)c1ccc(Cl)cc1 [chlorpropamide],30000,inhibitory effect,inhibitory effect,elicited a cell growth suppression effect,elicited a cell growth suppression effect on each tumor,–,–,–
–,–,"O=C(NC(Cc1cc(=O)[nH]c2ccccc12)C(=O)O)c1ccc(Cl)cc1 (centres unmarked) [Rebamipide, rebamipide]",360,–,–,–,–,no cell growth suppression effect,inhibits HAT1,does not inhibit KAT8
